Assay results from patent publication US11186587B2, “Compound as ACC inhibitor and use thereof” (NANJING SANHOME PHARMACEUTICAL CO., LTD., priority 2017, dated 2021).

System: HFD-CCL4 induced NASH model
Assay: Drug efficacy on NASH and liver fibrosis induced by HFD-CCL4
Assay type: in vivo
Conditions: C57BL/6 mice, HFD 10 weeks + CCL4 4 weeks; intragastric once a day for 4 weeks; Example 25 10 mg/kg/d, ND-630 30 mg/kg/d; H&E staining
Procedure: High-fat diet (HFD) was used to induce liver steatosis in animals, and then carbon tetrachloride (CCL4) was used to induce liver inflammation, necrosis, and liver fibrosis. This model was similar to the human NASH disease process and pathological phenomenon. The purpose of this experiment was to evaluate the efficacy of the compound of the disclosure in a NASH model of C57BL/6 mice induced by HFD-CCL4, with ND-630 as a control compound. HFD-CCL4 inducement was performed for 10 weeks and drug intervention was performed for 4 weeks. The therapeutic effects of the drug on NASH and liver fibrosis were observed.
The test compounds in the examples of the present disclosure and ND-630 were diluted to 0.3 mg/mL, 1 mg/mL, 3 mg/mL with PEG200:0.2M Na2HPO4-NaH2PO4 buffer (35:65), which was prepared just before use.
HFD-CCL4 induced NASH model in C57BL/6 mice: the animals were first housed in the SPF barrier of the KCI Experimental Animal Center for 3-7 days, and then the animals were changed to HFD feeding in a cycle of 10 weeks. […]
The left liver lobe sample was fixed with 10% formalin and embedded in paraffin to prepare 5 μm sections for haematoxylin-eosin (H&E) staining. Hematoxylin-eosin staining can detect tissue inflammation, fat deposition, vacuolar degeneration and tissue fibrosis, giving semi-quantitative analysis for the lesion.
The data were expressed as mean±standard error. […]

COc1ccccc1[C@H](Cn1c(=O)n(C(C)(C)C(=O)O)c(=O)c2c(C)c(-c3ncco3)sc21)OC1CCOCC1 [ND-630, 2-[1-[2-(2-methoxyphenyl)-2-(oxecyclo-4-yloxy)ethyl]-5-methyl-6-(1,3-oxazol-2-yl)-2,4-dioxo-1H,2H,3H,4H-thieno[2,3-d]pyrimidin-3-yl]-2-methylpropanoic acid, reference compound]
Hepatic steatosis score (Mean ± SD): 0.13 ± 0.32 | Hepatocyte necrosis score (Mean ± SD): 1.00 ± 0.61
